Assay results taken from patent US11542492B2 (Celgene CAR LLC, priority 2009, dated 2023).

Experiments:
Type in all cases: biochemical
[1] = target: T1, HCV NS3/4A 1b protease enzyme (wild type) (Hepatitis C virus genotype 1b, UniProt P26663); assay: HCV protease FRET assay (IC50_APP), wild type NS3/4A 1b
T1 construct: 10× stocks of NS3/4A protease enzyme from Bioenza (Mountain View, Calif.); purchased Bioenza
Procedure: HCV Protease FRET Assay for WT and Mutated NS3/4A 1b Enzymes (IC50_APP).
The following protocol was used to generate “apparent” IC50 (IC50_APP) values as depicted in Table 6, below. Without wishing to be bound by any particular theory, it is believed that IC50_APP, contrasted with IC50 values, may provide a more useful indication of time-dependent inhibition, and are thus more representative of binding affinity. […] 5 μL of each enzyme were added to Corning (#3575) 384-well, black, microtiter plates (Corning, N.Y.) after spotting a 0.5 μL volume of 50% DMSO and serially diluted compounds prepared in 50% DMSO. Protease reactions were immediately started after enzyme addition with the addition of 45 μL of the FRET substrate and monitored for 60-90 minutes at λex485/λem520 in a Synergy plate reader from BioTek (Winooski, Vt.). At the conclusion of each assay, progress curves from each well were examined for linear reaction kinetics and fit statistics (R^2, 95% confidence intervals, absolute sum of squares). Initial velocity (0 minutes to 15+ minutes) from each reaction was determined from the slope of a plot of relative fluorescence units vs time (minutes) and then plotted against inhibitor concentration as a percent of the no inhibitor and no enzyme controls to estimate apparent IC50 from log [Inhibitor] vs Response. (Variable Slope model in GraphPad Prism from GraphPad Software (San Diego, Calif.).)

[2] = target: T2, p110α/p85α (PI3Kα) (Homo sapiens, UniProt P42336); assay: HTRF assay, p110α/p85α; details: read-out: PI3Kα-HTRF-IC50 nM Inhibition Designation
T2 construct: purchased BPS Bioscience or Millipore 40620 (BPS Bioscience) or 14-602 (Millipore)
T2 sequence (P42336 whole entry): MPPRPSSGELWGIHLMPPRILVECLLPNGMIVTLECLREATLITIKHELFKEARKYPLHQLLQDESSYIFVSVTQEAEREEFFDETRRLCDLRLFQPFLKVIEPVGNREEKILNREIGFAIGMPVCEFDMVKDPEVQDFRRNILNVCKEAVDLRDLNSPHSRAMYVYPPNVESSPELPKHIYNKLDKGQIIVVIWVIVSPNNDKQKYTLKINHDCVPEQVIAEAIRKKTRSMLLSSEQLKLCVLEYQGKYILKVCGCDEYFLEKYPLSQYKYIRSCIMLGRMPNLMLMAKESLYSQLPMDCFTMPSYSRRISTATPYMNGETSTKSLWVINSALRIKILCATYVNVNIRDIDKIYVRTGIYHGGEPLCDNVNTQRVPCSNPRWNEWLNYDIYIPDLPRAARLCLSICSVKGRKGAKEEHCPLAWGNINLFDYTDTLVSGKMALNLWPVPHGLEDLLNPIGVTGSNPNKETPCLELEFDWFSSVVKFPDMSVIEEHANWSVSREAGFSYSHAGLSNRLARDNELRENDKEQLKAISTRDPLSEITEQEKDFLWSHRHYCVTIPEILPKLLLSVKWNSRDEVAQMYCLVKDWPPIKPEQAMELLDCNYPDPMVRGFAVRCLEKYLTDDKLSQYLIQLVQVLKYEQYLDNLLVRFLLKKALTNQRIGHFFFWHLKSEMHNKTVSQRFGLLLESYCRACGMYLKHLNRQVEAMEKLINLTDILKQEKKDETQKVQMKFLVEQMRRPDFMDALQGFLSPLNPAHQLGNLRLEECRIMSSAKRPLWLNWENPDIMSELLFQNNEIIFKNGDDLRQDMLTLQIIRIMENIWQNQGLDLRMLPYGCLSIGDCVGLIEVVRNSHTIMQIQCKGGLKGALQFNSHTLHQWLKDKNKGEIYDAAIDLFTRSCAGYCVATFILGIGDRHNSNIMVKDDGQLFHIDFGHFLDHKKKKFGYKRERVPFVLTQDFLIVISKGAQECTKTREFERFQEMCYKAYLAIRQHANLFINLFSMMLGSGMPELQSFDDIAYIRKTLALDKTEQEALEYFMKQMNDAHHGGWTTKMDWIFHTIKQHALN
T2 sequence (P27986 whole entry partner): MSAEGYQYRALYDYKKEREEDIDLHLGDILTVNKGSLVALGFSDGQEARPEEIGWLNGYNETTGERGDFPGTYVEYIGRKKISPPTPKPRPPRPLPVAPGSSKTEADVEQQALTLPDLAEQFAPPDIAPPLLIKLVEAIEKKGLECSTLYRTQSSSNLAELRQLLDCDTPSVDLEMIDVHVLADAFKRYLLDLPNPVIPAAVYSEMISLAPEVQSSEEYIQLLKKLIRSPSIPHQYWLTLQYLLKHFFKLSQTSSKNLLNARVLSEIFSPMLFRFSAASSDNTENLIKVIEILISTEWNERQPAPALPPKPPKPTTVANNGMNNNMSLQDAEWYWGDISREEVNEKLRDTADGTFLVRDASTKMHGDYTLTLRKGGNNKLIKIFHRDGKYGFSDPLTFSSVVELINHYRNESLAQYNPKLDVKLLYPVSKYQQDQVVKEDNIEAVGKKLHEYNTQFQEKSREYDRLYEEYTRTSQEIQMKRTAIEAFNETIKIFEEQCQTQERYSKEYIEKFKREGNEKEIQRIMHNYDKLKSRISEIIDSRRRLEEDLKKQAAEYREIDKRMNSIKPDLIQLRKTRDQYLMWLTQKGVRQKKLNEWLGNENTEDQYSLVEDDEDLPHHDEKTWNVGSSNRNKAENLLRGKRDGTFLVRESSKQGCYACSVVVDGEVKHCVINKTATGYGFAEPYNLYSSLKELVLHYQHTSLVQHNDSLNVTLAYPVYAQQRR
Procedure: HTRF Assay Protocol for Potency Assessment Against the Active Form of p110α/p85α:
The mechanics of the assay platform are best described by the vendor (Millipore, Billerica, Mass.) on their website at the following URL: http://www.millipore.com/coa/tech1/74jt4z.
Briefly, Stop solution (Stop A, #33-007 and Stop B, #33-009; 3:1 ratio) and Detection Mix (DMC, #33-015 with DMA, #33-011 and DMB, #33-013; 18:1:1 ratio) were prepared as recommended by the manufacturer ˜2 hrs prior to use. […] Lipid kinase reactions were started with the addition of 5 μL of ATP solution, mixed for 15 sec on a rotary plate shaker and incubated for 15-30 minutes at 25° C. Next, reactions were stopped with a 5 μL addition of Stop solution followed by a 5 μL volume of Detection Mix. […] At the conclusion of each assay, the HTRF ratio from fluorescence emission values for each well was calculated and % Inhibition determined from averaged controls wells. % Inhibition values for each compound re then plotted against inhibitor concentration to estimate IC50 from log [Inhibitor] vs Response, Variable Slope model in GraphPad Prism from GraphPad Software (San Diego, Calif.).

[3] = target: T3, p120γ (PI3Kγ) (Homo sapiens, UniProt P48736); assay: HTRF assay, p120γ; details: PI3Kγ; read-out: PI3Kγ HTRF IC50 Inhibition Designation
T3 construct: purchased BPS Bioscience 40625
T3 sequence (P48736 whole entry): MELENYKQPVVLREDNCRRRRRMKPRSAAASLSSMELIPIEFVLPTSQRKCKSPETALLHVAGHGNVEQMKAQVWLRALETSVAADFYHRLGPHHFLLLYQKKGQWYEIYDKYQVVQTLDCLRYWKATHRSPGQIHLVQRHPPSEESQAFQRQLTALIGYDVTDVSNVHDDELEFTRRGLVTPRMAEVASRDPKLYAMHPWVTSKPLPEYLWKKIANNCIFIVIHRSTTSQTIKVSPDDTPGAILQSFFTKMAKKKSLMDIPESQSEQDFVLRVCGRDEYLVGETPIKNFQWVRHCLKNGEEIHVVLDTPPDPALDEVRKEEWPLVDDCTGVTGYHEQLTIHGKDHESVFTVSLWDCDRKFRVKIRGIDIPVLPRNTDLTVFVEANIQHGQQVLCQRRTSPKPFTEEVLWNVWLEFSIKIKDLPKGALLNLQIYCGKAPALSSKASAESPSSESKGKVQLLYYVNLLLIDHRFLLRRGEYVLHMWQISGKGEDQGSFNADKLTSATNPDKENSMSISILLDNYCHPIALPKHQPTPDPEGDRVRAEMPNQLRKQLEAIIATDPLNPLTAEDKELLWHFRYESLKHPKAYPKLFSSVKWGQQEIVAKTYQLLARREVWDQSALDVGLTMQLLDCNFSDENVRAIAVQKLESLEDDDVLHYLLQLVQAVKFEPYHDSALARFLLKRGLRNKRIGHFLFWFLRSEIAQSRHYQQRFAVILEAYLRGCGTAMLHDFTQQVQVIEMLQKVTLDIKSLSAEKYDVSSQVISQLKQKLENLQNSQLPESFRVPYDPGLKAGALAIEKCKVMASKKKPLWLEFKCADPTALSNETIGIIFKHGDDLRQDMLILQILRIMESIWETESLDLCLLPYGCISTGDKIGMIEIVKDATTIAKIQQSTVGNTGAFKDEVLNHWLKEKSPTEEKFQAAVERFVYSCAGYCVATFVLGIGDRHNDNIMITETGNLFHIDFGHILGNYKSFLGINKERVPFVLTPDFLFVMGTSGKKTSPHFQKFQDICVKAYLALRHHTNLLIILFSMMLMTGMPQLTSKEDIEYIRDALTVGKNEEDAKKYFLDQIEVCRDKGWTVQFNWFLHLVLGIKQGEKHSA
Source text: The protocol below describes an end-point, competition-binding HTRF assay used to measure inherent potency of test compounds against active p110α/p85α, p110β/p85α, p120γ enzymes. The mechanics of the assay platform are best described by the vendor (Millipore, Billerica, Mass.) on their website at the following URL: http://www.millipore.com/coa/tech1/74jt4z.
Briefly, Stop solution (Stop A, #33-007 and Stop B, #33-009; 3:1 ratio) and Detection Mix (DMC, #33-015 with DMA, #33-011 and DMB, #33-013; 18:1:1 ratio) were prepared as recommended by the manufacturer ˜2 hrs prior to use. Additionally, 1× reaction buffer (4× buffer stock #33-003), a 1.4× stock of enzyme from BPS Bioscience (San Diego, Ca) or Millipore (Billerica, Mass.) with di-C8-PIP2 lipid substrate (#33-005), and a 4×ATP solution (#A7699) Sigma/Aldrich (St. Louis, Mo.) were prepared in 1×reaction buffer. 15 μL of enzyme and lipid substrate mix were pre-incubated in a Corning (#3573) 384-well, black, non-treated microtiter plate (Corning, N.Y.) for 30 min at 25° C. with a 0.5 μL volume of 50% DMSO and serially diluted compounds prepared in 50%-75% DMSO. Lipid kinase reactions were started with the addition of 5 μL of ATP solution, mixed for 15 sec on a rotary plate shaker and incubated for 15-30 minutes at 25° C. Next, reactions were stopped with a 5 μL addition of Stop solution followed by a 5 μL volume of Detection Mix. Stopped reactions were equilibrated for 1 and 18 hrs at room temperature and then read in a Synergy4 plate reader from BioTek (Winooski, Vt.) at λex330-80/λem620-35 and λem665-7.5. At the conclusion of each assay, the HTRF ratio from fluorescence emission values for each well was calculated and % Inhibition determined from averaged controls wells. % Inhibition values for each compound re then plotted against inhibitor concentration to estimate IC50 from log [Inhibitor] vs Response, Variable Slope model in GraphPad Prism from GraphPad Software (San Diego, Calif.).
Reagents Used in Optimized Protocol: • [p120γ]=1-4 nM, [ATP]=50 μM, [di-C8-PIP2]=10 μM • (40625; BPS Bioscience)

T1 sequence (P26663 1658-1711): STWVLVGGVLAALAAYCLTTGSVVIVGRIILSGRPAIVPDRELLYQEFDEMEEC
T1 sequence (P26663 1027-1657): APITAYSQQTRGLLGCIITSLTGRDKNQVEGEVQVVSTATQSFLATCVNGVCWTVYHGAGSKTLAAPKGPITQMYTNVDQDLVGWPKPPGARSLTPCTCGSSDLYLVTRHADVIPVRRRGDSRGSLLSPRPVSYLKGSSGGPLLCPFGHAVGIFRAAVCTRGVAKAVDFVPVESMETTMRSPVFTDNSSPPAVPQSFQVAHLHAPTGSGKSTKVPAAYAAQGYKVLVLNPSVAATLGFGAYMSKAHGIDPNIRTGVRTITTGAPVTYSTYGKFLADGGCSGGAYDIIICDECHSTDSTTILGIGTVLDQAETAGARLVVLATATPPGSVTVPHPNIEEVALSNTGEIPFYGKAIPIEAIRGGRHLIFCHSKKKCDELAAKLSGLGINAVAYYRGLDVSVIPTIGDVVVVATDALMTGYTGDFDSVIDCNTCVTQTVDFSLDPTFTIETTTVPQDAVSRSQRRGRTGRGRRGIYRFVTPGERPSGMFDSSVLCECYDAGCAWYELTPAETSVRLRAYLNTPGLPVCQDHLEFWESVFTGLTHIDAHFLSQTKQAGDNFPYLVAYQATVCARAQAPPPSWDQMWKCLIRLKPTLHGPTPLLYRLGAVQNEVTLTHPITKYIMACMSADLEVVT

Structure (SMILES)	IC50 [2] [nM]	IC50 [3] [nM]	IC50 [1] [nM]
C=C[C@@H]1C[C@]1(NC(=O)[C@@H]1CC(OC(=O)N2Cc3cccc(F)c3C2)CN1C(=O)[C@H](CN(C)C(=O)[C@H]1CCC(=O)O1)NC(=O)OC(C)(C)C)C(=O)NS(=O)(=O)C1CC1 (stereo partly drawn) [XVI-18, (5S)-1-((S)-2-(tert-butoxycarbonylamino)-3-((R)-N-methyl-5-oxotetrahydrofuran-2-carboxamido)propanoyl)-5-((1R,2S)-1-(cyclopropylsulfonylcarbamoyl)-2-vinylcyclopropylcarbamoyl)pyrrolidin-3-yl 4-fluoroisoindoline-2-carboxylate]	–	–	1 to 10
O=C1CC[C@H](C(=O)N2CCN(c3ccnc4ccc(/C=C5\SC(Nc6c(Cl)cccc6Cl)=NC5=O)cc34)CC2)O1 [XXIV-1]	10 to 100	100 to 1000	–
CC1(C)Cc2nc(N3CCOc4ccc(-c5ccc6occc(=O)c6c5)cc43)sc2C(=O)N1 [XXIII-6]	100 to 1000	100 to 1000	–
C=C[C@@H]1C[C@]1(NC(=O)[C@@H]1CC(OC(=O)N2Cc3cccc(F)c3C2)CN1C(=O)CNC(=O)[C@H]1CCC(=O)O1)C(=O)NS(=O)(=O)C1CC1 (stereo partly drawn) [XVI-12, (5S)-5-((1R,2S)-1-(cyclopropylsulfonylcarbamoyl)-2-vinylcyclopropylcarbamoyl)-1-(2-((R)-5-oxotetrahydrofuran-2-carboxamido)acetyl)pyrrolidin-3-yl 4-fluoroisoindoline-2-carboxylate]	–	–	100 to 1000
C=C[C@@H]1C[C@]1(NC(=O)[C@@H]1CC(OC(=O)N2Cc3cccc(F)c3C2)CN1C(=O)CNC(=O)[C@@H]1CCC(=O)O1)C(=O)NS(=O)(=O)C1CC1 (stereo partly drawn) [XVI-13, (5S)-5-((1R,2S)-1-(cyclopropylsulfonylcarbamoyl)-2-vinylcyclopropylcarbamoyl)-1-(2-((S)-5-oxotetrahydrofuran-2-carboxamido)acetyl)pyrrolidin-3-yl 4-fluoroisoindoline-2-carboxylate]	–	–	100 to 1000
C=C[C@@H]1C[C@]1(NC(=O)[C@@H]1CC(OC(=O)N2Cc3cccc(F)c3C2)CN1C(=O)[C@@H]1CCC(=O)O1)C(=O)NS(=O)(=O)C1CC1 (stereo partly drawn) [XVI-23, (5S)-5-((1R,2S)-1-(cyclopropylsulfonylcarbamoyl)-2-vinylcyclopropylcarbamoyl)-1-((S)-5-oxotetrahydrofuran-2-carbonyl)pyrrolidin-3-yl 4-fluoroisoindoline-2-carboxylate]	–	–	100 to 1000
C=C[C@@H]1C[C@]1(NC(=O)[C@@H]1CC(OC(=O)N2Cc3cccc(F)c3C2)CN1C(=O)[C@H](CCNC(=O)[C@@H]1CCC(=O)O1)NC(=O)OC(C)(C)C)C(=O)NS(=O)(=O)C1CC1 (stereo partly drawn) [XVI-11, (5S)-1-((S)-2-(tert-butoxycarbonylamino)-4-((S)-5-oxotetrahydrofuran-2-carboxamido)butanoyl)-5-((1R,2S)-1-(cyclopropylsulfonylcarbamoyl)-2-vinylcyclopropylcarbamoyl)pyrrolidin-3-yl 4-fluoroisoindoline-2-carboxylate]	–	–	100 to 1000
C=C[C@@H]1C[C@]1(NC(=O)[C@@H]1CC(OC(=O)N2Cc3cccc(F)c3C2)CN1C(=O)[C@H](CN(C)C(=O)[C@@H]1CCC(=O)O1)NC(=O)OC(C)(C)C)C(=O)NS(=O)(=O)C1CC1 (stereo partly drawn) [XVI-19, (5S)-1-((S)-2-(tert-butoxycarbonylamino)-3-((S)-N-methyl-5-oxotetrahydrofuran-2-carboxamido)propanoyl)-5-((1R,2S)-1-(cyclopropylsulfonylcarbamoyl)-2-vinylcyclopropylcarbamoyl)pyrrolidin-3-yl 4-fluoroisoindoline-2-carboxylate]	–	–	1 to 10
C=C[C@@H]1C[C@]1(NC(=O)[C@@H]1CC(OC(=O)N2Cc3cccc(F)c3C2)CN1C(=O)[C@H](CNC(=O)[C@H]1CCC(=O)O1)NC(=O)OC(C)(C)C)C(=O)NS(=O)(=O)C1CC1 (stereo partly drawn) [XVI-20, (5S)-1-((S)-2-(tert-butoxycarbonylamino)-3-((R)-5-oxotetrahydrofuran-2-carboxamido)propanoyl)-5-((1R,2S)-1-(cyclopropylsulfonylcarbamoyl)-2-vinylcyclopropylcarbamoyl)pyrrolidin-3-yl 4-fluoroisoindoline-2-carboxylate]	–	–	1 to 10
C=C[C@@H]1C[C@]1(NC(=O)[C@@H]1CC(OC(=O)N2Cc3cccc(F)c3C2)CN1C(=O)[C@H]1CCC(=O)O1)C(=O)NS(=O)(=O)C1CC1 (stereo partly drawn) [XVI-22, (5S)-5-((1R,2S)-1-(cyclopropylsulfonylcarbamoyl)-2-vinylcyclopropylcarbamoyl)-1-((R)-5-oxotetrahydrofuran-2-carbonyl)pyrrolidin-3-yl 4-fluoroisoindoline-2-carboxylate]	–	–	> 1000
C=C[C@@H]1C[C@]1(NC(=O)[C@@H]1CC(OC(=O)N2Cc3cccc(F)c3C2)CN1C(=O)[C@H](CCNC(=O)[C@H]1CCC(=O)O1)NC(=O)OC(C)(C)C)C(=O)NS(=O)(=O)C1CC1 (stereo partly drawn) [XVI-10, (5S)-1-((S)-2-(tert-butoxycarbonylamino)-4-((R)-5-oxotetrahydrofuran-2-carboxamido)butanoyl)-5-((1R,2S)-1-(cyclopropylsulfonylcarbamoyl)-2-vinylcyclopropylcarbamoyl)pyrrolidin-3-yl 4-fluoroisoindoline-2-carboxylate]	–	–	100 to 1000
C=CC(=O)n1cc(-c2ccc3c(c2)N(c2nc4c(s2)C(=O)NC(C)(C)C4)CCO3)cn1 [XXIII-5, 2-(6-(1-acryloyl-1H-pyrazol-4-yl)-2H-benzo[b][1,4]oxazin-4(3H)-yl)-6,6-dimethyl-6,7-dihydrothiazolo[5,4-c]pyridin-4(5H)-one]	100 to 1000	–	–

Continued, in another order:

IC50 [2] [nM]	IC50 [3] [nM]	Structure (SMILES)	IC50 [1] [nM]
10 to 100	–	O=C(N1CCN(Cc2cc3nc(-c4cccc5[nH]ncc45)nc(N4CCOCC4)c3s2)CC1)n1ccnc1 [XXII-16, (4-((2-(1H-indazol-4-yl)-4-morpholinothieno[3,2-d]pyrimidin-6-yl)methyl)piperazin-1-yl)(1H-imidazol-1-yl)methanone]	–
1000 to 10000	1000 to 10000	C=CC(=O)Nc1cccc(-c2nc(N3CCOCC3)c3sccc3n2)c1 [XXII-21]	–
100 to 1000	100 to 1000	C[C@H]1OC(=O)[C@H]1NC(=O)N1CCN(Cc2cc3nc(-c4cccc5[nH]ncc45)nc(N4CCOCC4)c3s2)CC1 [XXII-13]	–
10 to 100	100 to 1000	O=C1CC[C@@H](C(=O)N2CC=C(c3cc4nc(-c5cccc(O)c5)nc(N5CCOCC5)c4s3)CC2)O1 [XXII-1]	–
1000 to 10000	–	C=CC(=O)N1CCN(Cc2cc3nc(-c4ccccc4)nc(N4CCOCC4)c3s2)CC1 [XXII-19]	–
10 to 100	–	CC(=O)CC(=O)N1CCN(Cc2cc3nc(-c4cccc5[nH]ncc45)nc(N4CCOCC4)c3s2)CC1 [XXII-14]	–
1000 to 10000	–	O=C(N1CCN(Cc2cc3nc(-c4ccccc4)nc(N4CCOCC4)c3s2)CC1)n1ccnc1 [XXII-18]	–
